# Biological target: T1, M2(S31) (Influenza A virus, UniProt P0DOF5)
# T1 construct: expressed in transfected cells; host or cells: CHO cells (membrane preparation adsorbed to SSM sensors)
# Test: Cell-free electrophysiology of M2 proton channels on solid supported membranes (IonGate SURFE2R screen)
# Type: biochemical
# Conditions: 25 μM inhibitor, activation by pH jump 7.0 to 6.0, % inhibition=100×(1−I/Io), 25 µM
# T1 sequence (P0DOF5 whole entry): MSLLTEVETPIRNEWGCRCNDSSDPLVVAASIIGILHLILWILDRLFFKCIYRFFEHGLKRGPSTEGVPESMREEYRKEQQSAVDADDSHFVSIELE
row,Compound,IonGate_M2(S31)_Screen % Inhibition at 25 μM
1,N=C(N)NC1C2CC3CC1CC(Cl)(C3)C2 (stereo not drawn) [Example 24],A (51-95% (A))
2,N#CC1C2CC3CC1CC(O)(C3)C2 (stereo not drawn) [Example 9],C (1-10% (C))
3,N#CC1C2CC3CC1CC(O)(C3)C2 (stereo not drawn) [Example 8],B (11-50% (B))
4,N=C(N)NC1C2CC3CC1CC(Cl)(C3)C2 (stereo not drawn) [Example 23],B (11-50% (B))

# Same assay, conditions: 25 μM inhibitor, activation by pH jump 7.0 to 6.0, % inhibition=100×(1−I/Io), read-out: IonGate_M2(S31)_Screen % Inhibition at 25 μM
row,Compound,inhibition at 25 µM [%]
1,N#CC1C2CC3CC1CC(Cl)(C3)C2 (stereo not drawn) [Example 12],11 to 50
2,NC1C2CC3CC(C2)CC1C3 (stereo not drawn) [Example 26],11 to 50
3,N=C(N)C1C2CC3CC1CC(Cl)(C3)C2 (stereo not drawn) [Example 14],51 to 95
4,O=C1C(=O)C2CC3CC(CC1C3)C2 [Example 28],11 to 50
5,NC1C2CC3CC(C2)CC1(O)C3 (stereo not drawn) [Example 19],51 to 95
6,N=C(N)C1C2CC3CC(C2)CC1C3 (stereo not drawn) [Example 11],51 to 95
7,NC1C2CC3CC1CC(Cl)(C3)C2 (stereo not drawn) [Example 15],51 to 95
8,O=[N+]([O-])C1C2CC3CC1CC(Cl)(C3)C2 (stereo not drawn) [Example 18],1 to 10
9,NC1C2CC3CC1CC(O)(C3)C2 (stereo not drawn) [Example 3],11 to 50
10,NCC1(O)C2CC3CC(C2)CC1C3 (stereo not drawn) [Example 1],51 to 95
11,COC12CC3CC(C1)C(C#N)C(C3)C2 (stereo not drawn) [Example 44],1 to 10
12,NCC1(O)C2CC3CC1CC(O)(C3)C2 (stereo not drawn) [Example 6],11 to 50
13,O/N=C1\C(=N\O)C2CC3CC(CC1C3)C2 [Example 29],11 to 50
14,N#CC1C2CC3CC(C2)CC1C3 (stereo not drawn) [Example 16],51 to 95
15,ON=C1C(=NO)C2CC3CC1CC(Cl)(C3)C2 [Example 42],11 to 50
16,NC1CC2CC3CC1CC(O)(C2)C3 (stereo not drawn) [Example 33],11 to 50
17,O=C1CC2CC3CC1CC(O)(C2)C3 (stereo not drawn) [Example 31],11 to 50
18,O=C1CC2CC3CC1CC(Cl)(C2)C3 (stereo not drawn) [Example 37],11 to 50

row,Compound,inhibition at 25 µM [%]
1,O=C1C(=O)C2CC3CC1CC(Cl)(C3)C2 [Example 40],1 to 10
2,OC12CC3CC(C1)C1NC1C(C3)C2 (stereo not drawn) [Example 34],11 to 50
3,OCCNC1C2CC3CC(C2)CC1C3 (stereo not drawn) [Example 2],51 to 95
4,NC1CC2CC3CC1CC(Cl)(C2)C3 (stereo not drawn) [Example 39],11 to 50
5,OC1C2CC3CC(CC(Cl)(C3)C2)C1O (stereo not drawn) [Example 41],1 to 10
6,NCC1C2CC3CC1CC(O)(C3)C2 (stereo not drawn) [Example 5],11 to 50
7,O=C1C(=O)C2CC3CC1CC(O)(C3)C2 [Example 35],1 to 10
8,NC1C2CC3CC(C2)CC(C3)C1N (stereo not drawn) [Example 30],51 to 95
9,NC1C2CC3CC1CC(S)(C3)C2 (stereo not drawn) [Example 22],51 to 95
10,O/N=C1\CC2CC3CC1CC(Cl)(C2)C3 (stereo not drawn) [Example 38],11 to 50
11,"OC12CC3CC(C1)C(n1ccnc1)C(C3)C2 (stereo not drawn) [Example 4, 4-imidazol-1-yladamantan-1-ol]",11 to 50
12,C1NC2C3CC4CC(C3)CC2(C4)O1 (stereo not drawn) [Example 21],51 to 95
13,NC1C2CC3CC(CC(Cl)(C3)C2)C1N (stereo not drawn) [Example 43],1 to 10
14,O/N=C1\CC2CC3CC1CC(O)(C2)C3 (stereo not drawn) [Example 32],11 to 50
15,OC1C2CC3CC(CC(O)(C3)C2)C1O (stereo not drawn) [Example 36],1 to 10
16,O=[N+]([O-])C1C2CC3CC(C2)CC1(O)C3 (stereo not drawn) [Example 20],11 to 50
17,C1C2CC3CC1CC(C2)C1NC31 (stereo not drawn) [Example 27],11 to 50

# Source: patent publication US20110065762A1, “METHODS OF USE OF ANTIVIRAL COMPOUNDS” (priority 2009, published 2011)
